From ChEMBL document CHEMBL2074180, “Human P-glycoprotein transports cyclosporin A and FK506” (J Biol Chem, 1993)

Molecular target: ATP-dependent translocase ABCB1 (Homo sapiens, UniProt P08183)
Assay: TP_TRANSPORTER: transepithelial transport of tacrolimus (basal to apical) (Tacrolimus: 6.2 uM) in MDR1-expressing LLC-PK1 cells
Format: functional, cell-based
Conditions: pig, llc-pk1, 6.2 µM

Sequence of ATP-dependent translocase ABCB1 (P08183 whole entry): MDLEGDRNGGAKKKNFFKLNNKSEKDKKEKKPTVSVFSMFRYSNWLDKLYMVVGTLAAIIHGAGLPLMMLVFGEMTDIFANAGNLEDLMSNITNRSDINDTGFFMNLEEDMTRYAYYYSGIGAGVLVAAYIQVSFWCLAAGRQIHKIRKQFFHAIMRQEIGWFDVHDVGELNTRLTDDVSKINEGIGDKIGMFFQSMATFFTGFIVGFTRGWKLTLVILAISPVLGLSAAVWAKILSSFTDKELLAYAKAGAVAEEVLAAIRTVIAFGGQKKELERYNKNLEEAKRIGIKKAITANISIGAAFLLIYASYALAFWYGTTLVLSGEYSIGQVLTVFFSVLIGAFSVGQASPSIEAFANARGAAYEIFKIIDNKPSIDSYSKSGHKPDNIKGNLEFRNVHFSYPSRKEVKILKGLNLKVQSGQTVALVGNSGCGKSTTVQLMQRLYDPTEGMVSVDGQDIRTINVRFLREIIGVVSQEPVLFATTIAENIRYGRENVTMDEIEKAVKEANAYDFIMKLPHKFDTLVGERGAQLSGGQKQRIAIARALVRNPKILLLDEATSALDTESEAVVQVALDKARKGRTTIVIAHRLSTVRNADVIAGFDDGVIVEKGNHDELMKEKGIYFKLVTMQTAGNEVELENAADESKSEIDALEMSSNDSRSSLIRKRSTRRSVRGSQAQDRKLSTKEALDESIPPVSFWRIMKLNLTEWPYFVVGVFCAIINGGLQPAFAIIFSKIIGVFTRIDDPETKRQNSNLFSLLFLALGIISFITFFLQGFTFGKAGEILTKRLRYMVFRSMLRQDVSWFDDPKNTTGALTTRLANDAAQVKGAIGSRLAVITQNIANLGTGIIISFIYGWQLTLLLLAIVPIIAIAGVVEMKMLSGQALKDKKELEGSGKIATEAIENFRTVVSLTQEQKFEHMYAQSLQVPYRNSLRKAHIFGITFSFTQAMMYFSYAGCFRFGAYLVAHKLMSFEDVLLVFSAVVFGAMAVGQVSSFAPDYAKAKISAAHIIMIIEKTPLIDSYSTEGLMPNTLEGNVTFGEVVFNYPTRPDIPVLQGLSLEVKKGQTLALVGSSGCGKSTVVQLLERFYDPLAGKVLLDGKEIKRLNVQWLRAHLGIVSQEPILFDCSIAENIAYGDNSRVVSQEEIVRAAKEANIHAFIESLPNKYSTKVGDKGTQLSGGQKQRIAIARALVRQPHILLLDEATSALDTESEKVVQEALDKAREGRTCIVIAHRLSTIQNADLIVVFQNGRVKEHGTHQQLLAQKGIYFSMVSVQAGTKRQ

- Activity: inhibitor [+]
Compound: C=CC[C@@H]1/C=C(\C)C[C@H](C)C[C@H](OC)[C@H]2O[C@@](O)(C(=O)C(=O)N3CCCC[C@H]3C(=O)O[C@H](/C(C)=C/[C@@H]3CC[C@@H](O)[C@H](OC)C3)[C@H](C)[C@@H](O)CC1=O)[C@H](C)C[C@@H]2OC [TACROLIMUS ANHYDROUS]
